# Measured values reported in paper PMC10353061 (ACS Pharmacology & Translational Science, 2023).
# Experiments:
# [1] = tested on: β-catenin/Tcf-4 interaction; test: Co-immunoprecipitation of β-catenin and Myc-tagged Tcf-4 in HCT116 cells; assay type: cell-based, human; settings: HCT116 transfected with Myc-tagged Tcf-4, LiCl 50 mM, 50 μM, 24 h
# Description: Toward this end, we performed a co-immunoprecipitation study in HCT116 cells transfected with Myc-tagged Tcf-4, treated with the two compounds, and immunoprecipitated with Myc antisera.
# HCT116 cells were transiently transfected with the Myc-tagged Tcf-4 plasmid and treated with LiCl (50 mM) and 9 (50 μM) or 10 (50 μM) for 24 h. Lysates were immunoprecipitated using Myc-agarose beads and western blot analysis was performed. […] Myc-agarose beads saturated with the Myc-blocking peptide before immunoprecipitation were used as a negative control.
# Co-immunoprecipitation assays were performed as previously described.[16],[60] Briefly, 2 × 10^4/cm^2 HCT116 cells were seeded in a 100 mm dish and incubated overnight at 37 °C. Cells were transfected with pcDNA/Myc Tcf-4 (Addgene plasmid #16512; http://n2t.net/addgene:16512; RRID:Addgene_16512)[29] and, after overnight incubation, were starved for 8 h in a medium containing Opti-MEM (#31985070, Thermo Fisher Scientific), FBS 0.5%, pen/strep 1%, NaPyr 1%, NeAA 1%, and then co-treated with 50 mM LiCl and DMSO or 50 μM compound 9 or 50 μM compound […] for 24 h. Cells were collected at the end of the treatments and lysed in a buffer containing 0.5% Triton X-100, 0.5 mM EDTA, and 1 mM DTT. […] Chemioluminescence was detected using WesternBright ECL (#K-12045-D50, Advansta), according to the manufacturer’s protocol.
# SW480 cells = test: Cell viability (XTT) of SW480 colon cancer cells; assay type: cell-based
# Description: PKCδ has been recognized to be a proapoptotic kinase; its cleavage and activation promote apoptotic cell death (Table 2).[33]
# Cell viability was evaluated by XTT[55] (SW480 cells) or MTT[56] (HCT116 cells) colorimetric assays. Briefly, cells (range 10–30 × 10^3 cells/well) were seeded in 96-well microculture plates and then exposed to increasing concentrations of different compounds (range 0–300 μM) for 48 or 72 h. […] Absorbance at 450 nm and a reference wavelength of 650 nm was then measured using a microplate spectrophotometer (Multiskan FC Microplate Photometer, Thermo Scientific, Waltham, MA). The cell growth inhibition rate was calculated utilizing the following formula: inhibition rate (%) = […] × 100, where Control OD is the absorbance of the negative control and Sample OD is the absorbance of the test sample. The IC50 values were determined with GraphPad Prism 5 through constructed dose–response curves.
# SW620 cells = test: Inhibition of SW620 cells; assay type: cell-based; settings: Homo sapiens, SW-620, in the combination 9 at constant 0.25 μM
# HCC1806 cells = test: Cell proliferation by live-cell imaging (IncuCyte), HCC1806 TNBC cells; assay type: cell-based; settings: 40 μM, 72 h
# Description: As TNBC is a highly heterogeneous subgroup, including breast cancers with different molecular and phenotypic traits,[37] effects of compounds 5–10 on cell proliferation were also tested in additional TNBC cell lines, i.e., HCC1806 and HCC1937. As inhibitors of HCC1806 TNBC cells, compounds 5–10 were evaluated in parallel with compounds 3, ICG-001, and iCRT3 (Figures 10 and S12–S19, Supporting Information); as inhibitors of the HCC1937 TNBC cells, 5–10 were compared with 3 and iCRT3 (Figures 10, S20, and S21). Effects on cell proliferation were evaluated as above for the MDA-MB-231 TNBC cells at the latest time point of observation of 72 h.
# Figure 10 Inhibition of MDA-MB-231, HCC1806, and HCC1937 TNBC cell growth by compounds 5–10 and reference compounds 3, […], and iCRT3 at 40 μM. Cell growth inhibition was quantified using the IncuCyte cell-by-cell analysis software, by comparison with the growth of DMSO-treated cells at 72 h, set at 100% (mean ± SD, n = 3, one-way ANOVA, **p ≤ 0.01, ****p ≤ 0.0001).
# Cell proliferation of breast cancer cell lines upon continuous treatment with select compounds was evaluated by the real-time quantitative live-cell imaging system. MDA-MB-231 (1500 cells/well), HCC1806 (2000 cells/well), and HCC1937 (3000 cells/well) were seeded in 96-well plates, treated with increasing doses of selected compounds and images (5 images/well) were acquired every 8 h for 3 days at 10× magnification in an IncuCyte SX5 live-content imaging system (Essen Bioscience) at 37 °C with 5% CO2. Images were analyzed using IncuCyte cell-by-cell analysis software to detect and quantify live cells (phase-contrast). The number of cells at each time point was quantified using IncuCyte cell-by-cell analysis software, and cell growth was evaluated as the normalized ratio between counted cells at each time point normalized to those counted at time 0. Graph drawing and statistical analyses were performed in GraphPad Prism according to the statistical tests described in the figure legends.
structure (smiles),measurement,setting,value
"O=S(=O)(Nc1ccc(-c2ccccn2)cc1)c1ccc(Br)cc1 [Compound 9, 4-Bromo-N-(4-(pyridin-2-yl)phenyl)benzenesulfonamide]",association between β-catenin and Tcf-4 (co-immunoprecipitation),[1],completely abrogated the association
same,improvement in SW480 cell growth inhibition compared with 5-FU,SW480 cells,6 fold
same,EC50,SW620 cells,37 µM
same,effect on HCC1806 cell growth,HCC1806 cells,less effective
